Test results as given in patent publication US8609413B2, “Neurons, astrocytes and oligodendrocytes differentiated from a mammalian pluripotent or neural stem cells exposed to a pyridine deriviative” (Research Development Foundation, priority 2007, dated 2013).

System: HS401 human ES cells
Experiment: Differentiation protocol 2 in HS401 cell line
Assay type: cell-based
Details: 3 μM vs DMSO
Procedure: Two different protocols were used to induce neuronal differentiation of human ES cells. In the first protocol, human ES cells were mechanically dissociated into small aggregates and plated on laminin/polyornithine coated six-well plates. Cells were cultured 2 weeks in human SR medium (DMEM F-12 supplemented with 15% knockout serum (Gibco), non-essential amino acids, penicillin and streptomycin), followed by 4 weeks in N2 medium. Compounds were added throughout these first 6 weeks. Subsequently, cells were mechanically dissociated and replated on polyornithine/laminin-coated 6 well plates. Throughout the text, this first differentiation protocol will be referred to as “differentiation protocol 1”. The second differentiation protocol was derived from previously described differentiation conditions (Nat et al., 2007). In the second differentiation protocol, undifferentiated human ES cells were mechanically dissociated into small aggregates and cultured in suspension on low-attachment six-well plates. For the first 4 days, they were cultured in neuronal induction medium (DMEM F-12, N2 supplement, penicillin and streptomycin), which was changed to simple neuronal proliferation medium (DMEM F-12, N2 supplement, 20 ng/ml bFGF, penicillin and streptomycin) for 2 additional days. […]

For `Nc1ccc(/N=N/c2ccccc2)c(N)n1` [phenazopyridine], the “morphology and dissociation observations in HS401 cell line” value was “confirmed”.
